Laboratory results published in patent US5914236A, “PCT-65 serotonin receptor” (United States of America, priority 1995, dated 1999).

Columns and labels:
PCT-65 receptor [1] = biological target: T1, PCT-65 receptor (Rattus norvegicus, UniProt P32305); assay: [3H]-LSD competition binding to PCT-65 receptor in membranes of transfected COS-7 cells; conditions: for Ki: competing with [3H]-LSD (1.5-2.2 nM), COS-7 membranes, pH 7.4, 37 °C, 60 min, geometric mean ± SEM (n=3)
T1 construct: expressed in transfected cells; host or cells: COS-7 cells (transient, calcium phosphate, pSRα-65)
T1 sequence (P32305 45-448): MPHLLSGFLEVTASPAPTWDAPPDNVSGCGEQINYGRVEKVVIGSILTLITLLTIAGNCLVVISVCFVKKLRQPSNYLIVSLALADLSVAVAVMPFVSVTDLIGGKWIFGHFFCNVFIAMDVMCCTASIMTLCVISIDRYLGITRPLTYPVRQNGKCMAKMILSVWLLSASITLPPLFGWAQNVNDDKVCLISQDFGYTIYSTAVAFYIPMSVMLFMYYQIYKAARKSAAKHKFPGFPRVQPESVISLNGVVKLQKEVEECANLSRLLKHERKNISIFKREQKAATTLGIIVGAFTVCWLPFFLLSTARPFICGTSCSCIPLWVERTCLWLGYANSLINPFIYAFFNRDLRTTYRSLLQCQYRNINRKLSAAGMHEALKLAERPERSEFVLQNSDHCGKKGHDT
Source text: (§1) This plasmid construct (pSRα-65) was introduced into COS-7 cells by calcium phosphate-mediated transfection.

PCT-65 receptor [2] = biological target: T1, PCT-65 receptor; assay: [3H]-5-HT competition binding to PCT-65 receptor in membranes of transfected COS-7 cells; conditions: competing with [3H]-5-HT (1 nM), COS-7 membranes, 37 °C; geometric mean ± SEM (n=3)
Description: as §1
Specifically, transfected cells were scraped into PBS with 5 mM EDTA, spun, polytroned, spun, suspended in 100 mM Tris, 20 mM MgSO4, 1 mM EDTA, pH7.7. 0.5 ml of this solution containing 10-25 μg protein was added to 0.5 ml of a 2 mM ascorbic acid solution containing the ligand and drugs and incubated for 30 min at 37° C. Filtration was performed on GF/C paper (0.1% PEI solution pre-treatment) with a 10 ml rinse.

PCT-65 receptor [3] = biological target: T1, PCT-65 receptor; assay: Competition binding to PCT-65 receptor (radioligand not specified); conditions: for affinity for PCT-65 (in words): expressed in mammalian cells (COS-7)
5HT1A receptors = conditions: background; cited from earlier work
[4] = radioligand not given, read-out: Ki (compounds not in Table 1)

Row | Compound | Ki (PCT-65 receptor [1]) | Ki (PCT-65 receptor [2]) | further results
1 | NCCc1c[nH]c2ccc(C(N)=O)cc12 [5-Carboxamidotryptamine] | 0.33 ± 0.01 nM | 0.16 ± 0.05 nM | 
2 | CC[C@@H](CO)NC(=O)[C@@H]1C=C2c3cccc4c3c(cn4C)C[C@H]2N(C)C1 [Methysergide] | 12.6 ± 0.84 nM | 13.4 ± 0.8 nM | 
3 | c1ccc2nc(N3CCNCC3)ccc2c1 [Quipazine] |  |  | Ki (PCT-65 receptor [3]; [4]): > 1300 nM
4 | Clc1cccc(N2CCNCC2)c1 [mCPP] | 352 ± 54.9 nM | 256 ± 9.9 nM | 
5 | CNS(=O)(=O)Cc1ccc2[nH]cc(CCN(C)C)c2c1 [Sumatriptan] |  | 251 ± 36.1 nM | 
6 | CCCN(CCC)C1CCc2cccc(O)c2C1 (stereo not drawn) [8-OH-DPAT] | 35.4 ± 5.24 nM | 35 ± 5.62 nM | affinity for PCT-65 (in words) (PCT-65 receptor [3]): relatively low affinity
7 | NCCc1c[nH]c2ccccc12 [Tryptamine] | 32.9 ± 0.76 nM | 16.4 ± 1.01 nM | 
8 | CN(C)CCC=C1c2ccccc2CCc2ccccc21 [Amitriptyline] | 124 ± 13.4 nM | 92.8 ± 15.8 nM | Ki (PCT-65 receptor [3]): < 100 nM; affinity for PCT-65 (in words) (PCT-65 receptor [3]): high affinity
9 | COc1ccc2[nH]cc(CCNC(C)=O)c2c1 [Melotonin] |  |  | Ki (PCT-65 receptor [3]): > 1300 nM
10 | FC(F)(F)c1cccc(N2CCNCC2)c1 [TFMPP] | 533 ± 33 nM | 236 ± 5.5 nM | 
11 | CCn1c(=O)n(C(=O)NC2CC3CCC(C2)N3C)c2ccccc21 (stereo not drawn) [BIMU1] |  |  | Ki (PCT-65 receptor [3]; [4]): > 1300 nM
12 | CN1C2CCCC1CC(NC(=O)c1nn(C)c3ccccc13)C2 (stereo not drawn) [BRL43694] |  |  | Ki (PCT-65 receptor [3]; [4]): > 1300 nM
13 | NCCc1c[nH]cn1 [Histamine] |  |  | Ki (PCT-65 receptor [3]; [4]): > 1300 nM
14 | CC1(C)CC(=O)N(CCCCN2CCN(c3ncccn3)CC2)C(=O)C1 [gepirone] |  |  | affinity for 5HT1A receptors in the brain (in words) (5HT1A receptors): high affinities
15 | COc1ccccc1N1CCNCC1 [2-MPP] | 244 ± 16.5 nM | 125 ± 8.4 nM | 
16 | NCC(O)c1ccc(O)cc1 (stereo not drawn) [Octopamine] |  |  | Ki (PCT-65 receptor [3]): > 1300 nM
17 | COc1cc(N)c(Cl)cc1C(=O)NC1CCN2CCCC1C2 (stereo not drawn) [BRL24294] |  |  | Ki (PCT-65 receptor [3]; [4]): > 1300 nM
18 | CCN(CC)C(=O)[C@@H]1C=C2c3cccc4[nH]cc(c34)C[C@H]2N(C)C1 [LSD] |  |  | affinity for PCT-65 (in words) (PCT-65 receptor [3]): relatively high affinity
19 | CCCN1C[C@H](CSC)C[C@@H]2c3cccc4[nH]cc(c34)C[C@H]21 [Pergolide] | 4.78 ± 0.18 nM | 1.01 ± 0.03 nM | affinity for PCT-65 (in words) (PCT-65 receptor [3]): relatively high affinity
20 | COc1cc(N)c(Cl)cc1C(=O)NC1CN2CCC1CC2 (stereo not drawn) [Zacopride] |  |  | Ki (PCT-65 receptor [3]; [4]): > 1300 nM
21 | CC(C)C[C@H]1C(=O)N2CCC[C@H]2[C@]2(O)O[C@](NC(=O)[C@@H]3C=C4c5cccc6[nH]c(Br)c(c56)C[C@H]4N(C)C3)(C(C)C)C(=O)N12 [Bromocriptine] | 10.7 ± 0.47 nM | 48.8 ± 7.9 nM | 

Row | Compound | Ki (PCT-65 receptor [1]) | Ki (PCT-65 receptor [2]) | further results
22 | CCNC(C)Cc1cccc(C(F)(F)F)c1 (stereo not drawn) [Fenflurmine] |  |  | Ki (PCT-65 receptor [3]): > 1300 nM
23 | COc1ccccc1N1CCN(CCCCN2C(=O)c3ccccc3C2=O)CC1 [NAN-190] |  |  | Ki (PCT-65 receptor [3]; [4]): > 1300 nM
24 | CN1CCN(C2=Nc3ccccc3Oc3ccc(Cl)cc32)CC1 [Loxapine] | 172 ± 7.8 nM | 133 ± 36.1 nM | affinity for PCT-65 (in words) (PCT-65 receptor [3]): low affinity; affinity for PCT-65 (in words) (PCT-65 receptor [3]; listed as loxipine): high affinity
25 | NCCc1c[nH]c2ccc(O)cc12 [5-Hydroxytryptamine, 5-hydroxytryptamine] |  |  | affinity for PCT-65 (in words) (PCT-65 receptor [3]): high affinity
26 | CN1C[C@H](CNC(=O)OCc2ccccc2)C[C@@H]2c3cccc4c3c(cn4C)C[C@H]21 [Metergoline] | 2.04 ± 0.15 nM | 6.21 ± 1 nM | potency in competition with [3H]-LSD compared with [3H]-5-HT (in words) (PCT-65 receptor [1]; relative to competition with [3H]-5-HT): somewhat greater potency
27 | COc1ccc2[nH]cc(CCN(C)C)c2c1 [5-Methoxy-N,N-dimethytryptamine] | 20.9 ± 0.86 nM | 8.26 ± 0.73 nM | 
28 | NCCc1ccc(O)c(O)c1 [Dopamine] |  |  | Ki (PCT-65 receptor [3]; [4]): > 1300 nM
29 | Cc1nc2sccn2c(=O)c1CCN1CCC(=C(c2ccc(F)cc2)c2ccc(F)cc2)CC1 [Ritanserin] | 21.7 ± 2.1 nM | 15 ± 3.4 nM | 
30 | CN1C2CCC1CC(NC(=O)n1c(=O)[nH]c3ccccc31)C2 (stereo not drawn) [DAU6215] |  |  | Ki (PCT-65 receptor [3]; [4]): > 1300 nM
31 | CN1C[C@@H](NS(=O)(=O)N(C)C)C[C@@H]2c3cccc4c3c(cn4C)C[C@H]21 [Mesulergine] | 7.13 ± 0.39 nM | 21.1 ± 2.19 nM | affinity for PCT-65 (in words) (PCT-65 receptor [3]): relatively high affinity
32 | CN1C2CCC1CC(NC(=O)c1nn(C)c3ccccc13)C2 (stereo not drawn) [LY-278584] |  |  | Ki (PCT-65 receptor [3]): > 1300 nM
33 | CNCCCN1c2ccccc2CCc2ccccc21 [Desipramine] |  |  | Ki (PCT-65 receptor [3]): > 1300 nM
34 | c1ccc2c(c1)OCC(C1=NCCN1)O2 (stereo not drawn) [Idazoxan] |  |  | Ki (PCT-65 receptor [3]; [4]): > 1300 nM
35 | CN1[C@@H]2CC[C@H]1C[C@@H](OC(=O)c1cc(Cl)cc(Cl)c1)C2 [MDL7222] |  |  | Ki (PCT-65 receptor [3]; [4]): > 1300 nM
36 | CC(C)NCC(O)COc1cccc2[nH]ccc12 (stereo not drawn) [Pindolol] |  |  | Ki (PCT-65 receptor [3]): > 1300 nM
37 | O=C(c1ccc(F)cc1)C1CCN(CCn2c(=O)[nH]c3ccccc3c2=O)CC1 [Ketanserin] | 207 ± 19.6 nM | 265 ± 32.1 nM | 
38 | O=C1c2ccccc2S(=O)(=O)N1CCCCN1CCN(c2ncccn2)CC1 [ipsapirone] |  |  | affinity for 5HT1A receptors in the brain (in words) (5HT1A receptors): high affinities
39 | c1ccc2c(N3CCNCC3)cccc2c1 [1(1-Napthyl)piperazine] | 33.8 ± 1.68 nM | 18.4 ± 0.77 nM | 
40 | CC(C)n1c(=O)n(C(=O)NC2CC3CCC(C2)N3C)c2ccccc21 (stereo not drawn) [BIMU8] |  |  | Ki (PCT-65 receptor [3]): > 1300 nM
41 | CN(C)CCCC1(c2ccc(F)cc2)OCc2cc(C#N)ccc21 (stereo not drawn) [Citalopram] |  |  | Ki (PCT-65 receptor [3]): > 1300 nM
